Tests used:
[1] = physchem; details: pH 7.8
Description: Dissociation constant, pKa of the compound at pH 7.8

[2] = system: Neuron; experiment: Increase in membrane potential in mollusc neurons assessed as conductance of potassium at pH 7.8 relative to salicylic acid; format: functional, Mollusca
[3] = octanol/water
[4] = physchem; details: octanol/water
Description: (§1) Octanol-water partition coefficient, log P of the compound

[5] = physchem
[6] = physchem; details: octanol/aqueous phase
Description: Octanol-aqueous phase partition coefficient, log P of the compound

[7] = physchem; details: pH 6.8
Description: Dissociation constant, pKa of the compound at pH 6.8

[8] = physchem; details: octanol/aqueous phase; remark: listed apart in the source
[9] = system: Colon; experiment: Drug absorption in anesthetized rat colon at pH 6.8; format: ADME, tissue-based; details: in vivo
[10] = Dissociation constant, pKa of the compound at pH 5.3; format: physicochemical
[11] = system: Small intestine; experiment: Drug absorption in rat small intestine; format: ADME, tissue-based; details: in vivo
[12] = Uncoupling of oxidative phosphorylation in rat liver mitochondria at pH 5 relative to control; format: functional
[13] = Uncoupling of oxidative phosphorylation in rat liver mitochondria at pH 7 relative to control; format: functional
[14] = Octanol-aqueous phase distribution coefficient, log D of the compound at pH 6; format: physicochemical
[15] = Octanol-aqueous phase distribution coefficient, log D of the compound at pH 5; format: physicochemical
[16] = Uncoupling of oxidative phosphorylation in rat liver mitochondria at pH 6 relative to control; format: functional
[17] = Octanol-aqueous phase distribution coefficient, log D of the compound at pH 8; format: physicochemical
[18] = Uncoupling of oxidative phosphorylation in rat liver mitochondria at pH 8 relative to control; format: functional
[19] = Octanol-aqueous phase distribution coefficient, log D of the compound at pH 7; format: physicochemical
[20] = octanol/water; remark: listed apart in the source
Description: as §1

[21] = Dissociation constant, pKa of the compound by titrimetric analysis; format: physicochemical
[22] = Octanol-aqueous phase […] of the compound at pH 7.10; format: physicochemical; details: pH 7.1

Structure (SMILES) | pKa [1] | fold change (FC) [2] | logP [4] | pKa [5] | logD [8] | log%Abs [9] | other results
O=C(O)c1cc([N+](=O)[O-])cc([N+](=O)[O-])c1O [3,5-DINITROSALICYLIC ACID] | 6.25 | 0 | 2.21 | 1.55 |  |  | logD [3]: -4.04
O=[N+]([O-])c1cccc(O)c1 [3-NITRO-PHENOL] |  |  |  |  | 2 | 1.64 | logP [6]: 2; pKa [7]: 1.4
O=C(O)c1cc(Cl)ccc1O [5-CHLOROSALICYLIC ACID] | 5.17 | 1 | 3.02 | 2.63 | -2.15 |  | 
O=C(O)c1cc(I)cc(I)c1O | 5.47 | 2 | 4.78 | 2.33 | -0.69 |  | 
Nc1cccc([N+](=O)[O-])c1 [3-NITROANILINE] |  |  |  |  | 1.37 | 1.68 | logP [6]: 1.37; pKa [10]: 2.8; pKa [7]: 4.3; log%Abs [11]: 1.89
O=C(O)c1ccc([N+](=O)[O-])cc1 [4-NITROBENZOIC ACID] | 4.39 | -0.52 | 1.89 | 3.41 |  |  | logD [3]: -2.5
O=C(O)c1cc([N+](=O)[O-])ccc1O | 5.48 | 0 | 2.21 | 2.32 | -3.27 | 0.3 | logP [6]: 1.98; pKa [7]: 4.5
CC(C)CCc1cc([N+](=O)[O-])c(O)c([N+](=O)[O-])c1 |  |  |  | 4.1 |  |  | logP [6]: 3.82; fold change (FC) [12]: 5.5; fold change (FC) [13]: 5.18; logD [14]: 1.92; logD [15]: 2.82; fold change (FC) [16]: 5.42; logD [17]: -0.08; fold change (FC) [18]: 4.92; logD [19]: 0.92
O=C(O)c1ccc(O)cc1O [2,4-DIHYDROXYBENZOIC ACID] |  | -1 | 1.6 | 4.7 | -1.5 |  | 
O=[N+]([O-])c1ccccc1O [NITROPHENOLATE] |  |  |  |  | 1.58 | 1.74 | logP [6]: 1.79; pKa [7]: 0.2
O=C(O)c1cc(O)ccc1O [GENTISIC ACID] | 4.83 | -0.7 |  |  |  |  | 
O=C(O)c1ccccc1 [BENZOIC ACID] |  |  |  |  |  | 1.28 | 
Nc1ccc([N+](=O)[O-])cc1 [4-NITROANILINE] |  |  |  |  |  | 1.7 | log%Abs [11]: 1.83
C=C[C@H]1C[N@@]2CC[C@H]1C[C@H]2[C@H](O)c1ccnc2ccc(OC)cc12 [QUININE] |  |  |  |  |  | 1.3 | log%Abs [11]: 1.18
Cc1cc([N+](=O)[O-])c(O)c([N+](=O)[O-])c1C |  |  |  | 4.2 |  |  | logP [6]: 2.54; fold change (FC) [12]: 4.92; fold change (FC) [13]: 4.36; logD [14]: 0.74; logD [15]: 1.64; fold change (FC) [16]: 4.51; logD [17]: -1.26; fold change (FC) [18]: 3.95; logD [19]: -0.26
O=C(O)c1cccc(Br)c1 | 3.94 | 0.48 | 2.84 |  |  |  | logD [3]: -1.1
O=C(O)c1cc(Br)cc(Br)c1O | 5.54 | 1.6 | 4.21 | 2.26 | -1.33 |  | 
CN[C@@H](C)[C@H](O)c1ccccc1 [EPHEDRINE] |  |  |  |  |  | 0.95 | log%Abs [11]: 0.85
CCCC(C)C1(CC)C(=O)NC(=S)NC1=O (stereo not given) [THIOPENTAL] |  |  |  |  | 2.44 | 1.7 | logP [6]: 2.5; pKa [7]: 0.8
O=C(O)c1cc(Br)ccc1O | 5.18 | 1.23 | 3.21 | 2.62 | -1.97 |  | 
Cc1cc(=O)n(-c2ccccc2)n1C [ANTIPYRINE] |  |  |  |  |  | 1.3 | pKa [10]: 3.9; pKa [7]: 5.4; log%Abs [11]: 1.51
Cc1ccc(C(=O)O)cc1 [4-METHYLBENZOIC ACID] | 3.44 |  |  |  |  |  | logD [3]: -2.09
CC(C)Cc1cc([N+](=O)[O-])c(O)c([N+](=O)[O-])c1 |  |  |  | 4.3 |  |  | logP [6]: 3.32; fold change (FC) [12]: 5.16; fold change (FC) [13]: 4.71; logD [14]: 1.62; logD [15]: 2.52; fold change (FC) [16]: 4.88; logD [17]: -0.38; fold change (FC) [18]: 4.48; logD [19]: 0.62
O=C(O)c1cccc(I)c1 |  | 0.6 | 3.13 | 4 |  |  | logD [3]: -0.67

Structure (SMILES) | pKa [1] | fold change (FC) [2] | logP [4] | pKa [5] | logD [8] | log%Abs [9] | other results
O=C(O)c1ccccc1O [SALICYLIC ACID] |  |  | 2.21 |  |  | 1.08 | logD [3]: -2.62
Cc1c(N(C)C)c(=O)n(-c2ccccc2)n1C [AMINOPYRINE] |  |  |  |  |  | 1.32 | pKa [10]: 0.3; pKa [7]: 1.8; log%Abs [11]: 1.52
O=[N+]([O-])c1ccc(O)cc1 [P-NITROPHENOL] |  |  |  |  |  |  | logP [6]: 1.96; fold change (FC) [12]: 3.3; fold change (FC) [13]: 3.51; logD [14]: 1.96; logD [15]: 1.96; fold change (FC) [16]: 3.37; logD [17]: 0.96; fold change (FC) [18]: 3.39; logD [19]: 1.66
O=C(O)c1c(O)cccc1O | 5.1 | 0.18 | 2.2 | 2.7 | -2.9 |  | 
O=C(O)c1cccc(Cl)c1 | 3.98 | 0.18 | 2.68 |  |  |  | logD [3]: -1.3
O=C(O)c1ccc(Br)cc1 | 3.82 | 0.4 | 2.86 | 3.98 |  |  | logD [3]: -0.96
CCCCC1C(=O)N(c2ccccc2)N(c2ccccc2)C1=O [PHENYLBUTAZONE] |  |  |  |  |  | 1.58 | 
CC(C)CCCCCc1cc([N+](=O)[O-])c(O)c([N+](=O)[O-])c1 |  |  |  | 4.1 |  |  | logP [6]: 5.32; fold change (FC) [12]: 6.08; fold change (FC) [13]: 5.64; logD [14]: 3.42; logD [15]: 4.32; fold change (FC) [16]: 5.89; logD [17]: 1.42; fold change (FC) [18]: 5.41; logD [19]: 2.42
CC(=O)Nc1ccccc1 [ACETANILIDE] |  |  |  |  | 1.16 | 1.56 | pKa [10]: 5; pKa [7]: 6.5; log%Abs [11]: 1.62
O=C(O)c1cc(I)ccc1O | 5.15 | 1.43 | 3.52 | 2.65 | -1.63 |  | 
O=C(O)c1ccc(Cl)c(Cl)c1 | 4.14 | 0.93 | 3.46 | 3.66 |  |  | logD [3]: -0.68
O=C(O)c1cccc([N+](=O)[O-])c1 | 4.33 | -0.7 | 1.83 | 3.47 |  | 1 | logP [6]: 1.83; logD [3]: -2.5; pKa [7]: 3.4
Cc1ccc(N)cc1 |  |  |  |  |  | 1.71 | pKa [10]: 0; pKa [7]: 1.5; log%Abs [11]: 1.77
O=C(O)c1ccc(I)cc1 | 3.89 | 0.54 | 3.02 | 3.91 |  |  | logD [3]: -0.87
O=C(O)c1cccc(O)c1 [3-HYDROXYBENZOIC ACID] | 3.74 | -1 | 1.5 |  |  |  | logD [3]: -2.24
c1ccc(CC2=NCCN2)cc1 [TOLAZOLINE] |  |  |  |  | -2.35 | 0.6 | logP [6]: 2.65; pKa [10]: 5; pKa [7]: 3.5; log%Abs [11]: 0.78
Oc1ccccc1 [PHENOL] |  |  |  |  |  | 1.55 | 
O=C(O)c1cc(Cl)cc(Cl)c1O | 5.5 | 1.48 |  | 2.3 | -1.62 |  | logP [20]: 3.88
COc1ccc(O)c(C(=O)O)c1 | 4.94 | 0.18 | 2.41 | 2.86 | -2.53 |  | 
Cn1c(=O)c2[nH]cnc2n(C)c1=O.O [THEOPHYLLINE] |  |  |  |  | -0.78 |  | logP [6]: -0.78; log%Abs [11]: 1.46
Nc1ccccc1 [ANILINE] |  |  |  |  | 0.82 | 1.64 | log%Abs [11]: 1.73
O=C(O)c1ccccc1Cl | 4.88 | -0.7 | 1.98 |  |  |  | logD [3]: -2.9
CCC(=O)c1ccc(O)cc1 [PAROXYPROPIONE] |  |  |  |  | 1.81 | 1.66 | logP [6]: 1.85; pKa [7]: 1
CN1CC[C@]23CCCC[C@H]2[C@H]1Cc1ccc(O)cc13 [LEVORPHANOL] |  |  |  |  | 0.02 | 1.11 | pKa [21]: 3; logD [22]: 3.02

Source: ChEMBL document CHEMBL3272293, “Use of distribution coefficients in quantitative structure-activity relationships” (J Med Chem, 1977)
